Patent publication US20150274719A1, “AMINO-SUBSTITUTED IMIDAZO[1,2-A]PYRIDINECARBOXAMIDES AND THEIR USE” (BAYER PHARMA AKTIENGESELLSCHAFT, priority 2012, published 2015)
Where a name gives a salt, the structure may show the parent alone.

Target: T1, recombinant guanylate cyclase reporter cell line (Rattus norvegicus, UniProt P19686+P20595)
T1 construct: expressed in transfected cells; host or cells: recombinant reporter cell line
T1 sequence (P19686 1-690): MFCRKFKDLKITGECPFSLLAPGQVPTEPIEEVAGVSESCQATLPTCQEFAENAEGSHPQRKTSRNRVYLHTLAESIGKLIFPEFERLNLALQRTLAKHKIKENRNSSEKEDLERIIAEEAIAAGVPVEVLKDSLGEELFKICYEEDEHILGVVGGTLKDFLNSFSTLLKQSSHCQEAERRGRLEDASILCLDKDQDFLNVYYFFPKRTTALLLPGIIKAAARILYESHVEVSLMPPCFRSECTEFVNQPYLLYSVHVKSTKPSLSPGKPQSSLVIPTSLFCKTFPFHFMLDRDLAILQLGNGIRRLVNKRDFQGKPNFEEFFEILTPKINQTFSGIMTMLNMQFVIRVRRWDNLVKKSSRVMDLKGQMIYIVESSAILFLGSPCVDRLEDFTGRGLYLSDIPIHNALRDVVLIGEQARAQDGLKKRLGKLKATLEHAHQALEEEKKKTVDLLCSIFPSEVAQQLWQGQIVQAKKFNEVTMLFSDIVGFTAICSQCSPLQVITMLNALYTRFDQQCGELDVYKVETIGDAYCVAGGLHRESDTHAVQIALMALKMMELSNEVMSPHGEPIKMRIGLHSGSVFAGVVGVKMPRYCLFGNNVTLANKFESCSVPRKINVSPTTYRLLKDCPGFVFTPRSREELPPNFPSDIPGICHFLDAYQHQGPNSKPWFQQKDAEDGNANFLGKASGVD
T1 sequence (P20595 1-619): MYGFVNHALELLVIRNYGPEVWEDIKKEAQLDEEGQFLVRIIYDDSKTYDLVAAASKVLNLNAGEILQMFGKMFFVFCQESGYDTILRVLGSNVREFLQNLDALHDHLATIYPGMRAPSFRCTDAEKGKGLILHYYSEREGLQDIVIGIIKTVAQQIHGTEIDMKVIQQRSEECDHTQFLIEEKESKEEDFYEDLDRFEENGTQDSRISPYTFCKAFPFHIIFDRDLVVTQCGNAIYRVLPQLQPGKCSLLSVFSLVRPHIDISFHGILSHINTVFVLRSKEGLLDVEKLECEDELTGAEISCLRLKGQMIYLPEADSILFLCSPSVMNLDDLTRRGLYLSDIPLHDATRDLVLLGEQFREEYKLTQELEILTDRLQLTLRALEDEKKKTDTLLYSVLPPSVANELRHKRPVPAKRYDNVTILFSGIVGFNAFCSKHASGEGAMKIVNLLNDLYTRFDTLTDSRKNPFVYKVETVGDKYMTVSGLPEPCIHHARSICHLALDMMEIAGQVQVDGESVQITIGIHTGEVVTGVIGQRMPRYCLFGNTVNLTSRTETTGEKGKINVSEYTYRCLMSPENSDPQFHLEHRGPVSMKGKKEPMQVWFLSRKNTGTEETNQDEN
Test: Action on recombinant guanylate cyclase reporter cell line
Type: cell-based
Conditions: in some cases mean values from individual determinations
Protocol: B-2. Action on Recombinant Guanylate Cyclase Reporter Cell Line
The cellular action of the compounds according to the invention is determined on a recombinant guanylate cyclase reporter cell line, as described in F. Wunder et al., Anal. Biochem. 339, 104-112 (2005).
Representative MEC values (MEC=minimal effective concentration) for the compounds according to the invention are shown in the following table (in some cases as mean values obtained from individual determinations): […]

SMILES | MEC (minimal effective concentration) [µM]
Cc1nc2c(OCc3c(F)cccc3F)cccn2c1C(=O)NC(CN)CC(F)(F)F (racemic) [Example 2, rac-N-(1-Amino-4,4,4-trifluorobutan-2-yl)-8-[(2,6-difluorobenzyl)oxy]-2-methylimidazo[1,2-a]-pyridine-3-carboxamide] | 0.65
Cc1nc2c(OCc3c(F)cccc3F)cccn2c1C(=O)NC(CN)CC(C(F)(F)F)C(F)(F)F (racemic) [Example 5, rac-N-[1-amino-5,5,5-trifluoro-4-(trifluoromethyl)pentan-2-yl]-8-[(2,6-difluorobenzyl)oxy]-2-methylimidazo[1,2-a]-pyridine-3-carboxamide trifluoroacetate] | 1.00
Cc1nc2c(OCc3c(F)cccc3F)cccn2c1C(=O)NC(CN)c1ccc(F)cc1 (racemic) [Example 9, rac-N-[2-Amino-1-(4-fluorophenyl)ethyl]-8-[(2,6-difluorobenzyl)oxy]-2-methylimidazo[1,2-a]-pyridine-3-carboxamide] | 0.30
Cc1nc2c(OCc3c(F)cccc3F)cccn2c1C(=O)NC(CN)c1ccc(F)c(F)c1 (racemic) [Example 11, rac-N-[2-Amino-1-(3,4-difluorophenyl)ethyl]-8-[(2,6-difluorobenzyl)oxy]-2-methylimidazo[1,2-a]pyridine-3-carboxamide] | 0.30
Cc1nc2c(OCc3c(F)cccc3F)cccn2c1C(=O)NC(CN)c1ccc(Cl)cc1 (racemic) [Example 14, rac-N-[2-Amino-1-(4-chlorophenyl)ethyl]-8-[(2,6-difluorobenzyl)oxy]-2-methylimidazo[1,2-a]-pyridine-3-carboxamide dihydrochloride] | 1.00

More lines, now with the values ahead:

MEC (minimal effective concentration) [µM] | SMILES
0.20 | Cc1cc(OCc2c(F)cccc2F)c2nc(C)c(C(=O)NC3CCC(N)C3)n2c1 (mixture of isomers) [Example 308, N-(3-aminocyclopentyl)-8-[(2,6-difluorobenzyl)oxy]-2,6-dimethylimidazo[1,2-a]pyridine-3-carboxamide (stereoisomer mixture)]
0.30 | Cc1cc(OCc2c(F)cccc2F)c2nc(C)c(C(=O)NC3CNCC3C(F)(F)F)n2c1 (mixture of isomers) [Example 313, 8-[(2,6-Difluorobenzyl)oxy]-2,6-dimethyl-N-[4-(trifluoromethyl)pyrrolidin-3-yl]imidazo[1,2-a]pyridine-3-carboxamide (mixture of stereoisomers)]
1.00 | Cc1cc(OCc2c(F)cccc2F)c2nc(C)c(C(=O)NC3CC(N)C3)n2c1 (mixture of isomers) [Example 334, N-(3-aminocyclobutyl)-8-[(2,6-difluorobenzyl)oxy]-2,6-dimethylimidazo[1,2-a]pyridine-3-carboxamide (cis/trans mixture)]
0.30 | Cc1cc(OCc2c(F)cccc2F)c2nc(C)c(C(=O)NC3CC(C)(C)C3N)n2c1 (mixture of isomers) [Example 358, N-(2-amino-3,3-dimethylcyclobutyl)-8-[(2,6-difluorobenzyl)oxy]-2,6-dimethylimidazo[1,2-a]pyridine-3-carboxamide Formate (Isomer Mixture)]
0.30 | Cc1nc2c(OCc3c(F)cccc3F)cccn2c1C(=O)NC(CN)c1ccccc1 (racemic) [Example 16, rac-N-(2-Amino-1-phenylethyl)-8-[(2,6-difluorobenzyl)oxy]-2-methylimidazo[1,2-a]pyridine-3-carboxamide dihydrochloride]
1.00 | Cc1nc2c(OCc3c(F)cccc3F)cccn2c1C(=O)NC(C)CN (racemic) [Example 17, rac-N-(1-aminopropan-2-yl)-8-[(2,6-difluorobenzyl)oxy]-2-methylimidazo[1,2-a]pyridine-3-carboxamide dihydrochloride]
